This note sets out measurements from PubChem BioAssay (NCI).

Where “and” joins values, the source holds several entries; their conditions need not be identical. Identical values can stand only once.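 Compound exposure: 48 hours, 5 concentrations, 96-well plates. GI50 = concentration required for 50% inhibition of growth. TGI marks complete inhibition of growth.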 A value given as a limit tells only on which side of the number the result lay.

Assay in all cases: DTP human tumour cell line panel, 48 h
The test system of experiment [1] is HOP-92 NSCLC.
For experiment [2], the system named is RPMI-8226 leukemia.
Experiment [3] has as its system LOX IMVI melanoma.
The subject of experiment [4] is SK-OV-3 ovarian.
Experiment [5] concerns SR leukemia.
Experiment [6] concerns DU-145 prostate.
In experiment [7] the test system is OVCAR-4 ovarian.
The test system of experiment [8] is OVCAR-8 ovarian.
For experiment [9], the system named is A549 NSCLC.

A word on the GI50: it is the concentration giving 50% growth inhibition. Usually TGI stands for the concentration giving total growth inhibition. Low readings indicate greater sensitivity of the cells, high ones lower sensitivity of the cells. With `Nc1cc(O)ccc1N=Nc1ccc(-c2nc3ccccc3[nH]2)cc1`, the GI50 is 0.67 µM in experiment [1]; 30.2 µM in experiment [2]; 7.6 µM in experiment [3]; greater than 100 µM in experiment [4]; 68.5 µM in experiment [5]; greater than 100 µM in experiment [6]. Moreover, the figures for the GI50 in [7], in experiment [8] and in experiment [9] were greater than 100 µM, 10.7 µM and greater than 100 µM, respectively. The TGI in [1] is 15.5 µM; in experiment [2] it was 94.6 µM; in [3], 37.1 µM; in [4], greater than 100 µM; in experiment [5] it was greater than 100 µM; in [6] it was greater than 100 µM. Besides, the TGI was greater than 100 µM in experiment [7], 52.5 µM in [8] and greater than 100 µM in [9].

As for `Cc1cccc(C(C)C)c1N1C(=O)C(=O)C(c2nc3ccccc3o2)C(=O)C1=O`, the TGI in [1], in experiment [3], in experiment [4], in experiment [5], in [7] and in experiment [8] was greater than 100 µM in each case. Moreover, in experiment [9], the TGI is greater than 100 µM.

For the molecule `COC(=O)/C(=N/Nc1cccc(Cl)c1)C(C(=O)C(=O)Nc1cccc(Cl)c1C)c1nc2ccccc2nc1C` (centres undefined), the TGI in experiment [2], in experiment [4], in experiment [5], in experiment [7], in [8] and in [9] was greater than 100 µM throughout.

As to `Nc1c(O)cc(N=C2C(=O)C=CC=C2C(=O)O)c(O)c1C(=O)O`, the TGI in [1], in experiment [2], in experiment [3], in experiment [4], in experiment [5] and in experiment [7] was greater than 100 µM each time. Also, the TGI in experiment [8] and in experiment [9] was greater than 100 µM throughout.

`Cc1noc2c1C(=O)CCC2`: the TGI in [1], in experiment [2], in experiment [3], in experiment [4], in experiment [5] and in experiment [7] was greater than 100 µM each time. Moreover, the TGI in experiment [8] is greater than 100 µM.

`COC(=O)C1C=CCON2CCc3c(n(C)c4ccccc34)C12` (centres undefined): the TGI in experiment [1], in [2], in experiment [3], in experiment [4], in [5] and in experiment [7] was greater than 100 µM in each case. Besides, in experiment [9], the TGI was greater than 100 µM.

`N#CC1CCCCOCCOCCOCCOCCOCCCCCC1=O` (centres undefined): the TGI in [2], in experiment [3], in [4], in experiment [5], in experiment [7] and in experiment [8] was greater than 100 µM throughout. The same molecule returned a TGI in [9] greater than 100 µM.

For `O=c1cc(-c2c[nH]c3ccccc23)[nH]c2cc3c(cc12)OCO3`, the TGI in experiment [2], in experiment [3], in [5], in [7] and in experiment [9] was greater than 100 µM each time.

Consider `CN(C)C(=Nc1nc(=[N+](C)C)ss1)N(C)C`, for which the TGI in [1], in experiment [2], in [4], in experiment [7], in [8] and in [9] was greater than 100 µM throughout.

Regarding `Cc1cc(-c2ccccc2)nc(Nc2nc3ccccc3o2)n1`, the TGI in experiment [1], in experiment [2], in experiment [3], in [4], in experiment [5] and in experiment [7] was greater than 100 µM throughout. In addition, the TGI in [8] and in experiment [9] was greater than 100 µM throughout.

As to `Cc1ccc(NC(=O)C2C(=O)N(c3ccc(C)c(C)c3)C(=O)/C2=N\NC(N)=O)cc1C` (centres undefined), the TGI in [1], in experiment [2], in experiment [3], in experiment [4], in experiment [7] and in experiment [8] was greater than 100 µM each time. Besides, the TGI in experiment [9] is greater than 100 µM.

As for `CN=C(NC(=S)N(C)C)N(C)C`, the TGI in experiment [1], in experiment [2], in experiment [4], in experiment [5], in experiment [7] and in experiment [8] was greater than 100 µM each time. The molecule further returned a TGI in [9] greater than 100 µM.

As to `O=S(=O)(O)c1ccc(N=Nc2nc(C(F)(F)F)c(C(F)(F)F)[nH]2)cc1`, the TGI was 31.6 µM in experiment [1]; greater than 100 µM in [2]; 29.2 µM in experiment [3]; greater than 100 µM in [4]; 69.9 µM in experiment [5]; 50.4 µM in experiment [7]. Besides, the TGI in experiment [8] and in [9] was greater than 100 µM each time.

Take `COc1cc(NS(C)(=O)=O)ccc1Nc1c2ccccc2nc2ccccc12`: the GI50 in experiment [1] is 2.59 µM and 0.604 µM; in experiment [2], 4.07 µM and 2 µM; in experiment [3] it was 0.351 µM and 0.306 µM and 0.31 µM; in experiment [4], 0.557 µM and 0.239 µM and 0.288 µM; in experiment [5] it was 0.0475 µM and 0.0245 µM; in experiment [7], 12.6 µM and 5.08 µM. Moreover, the GI50 in experiment [8] is 1.33 µM and 0.904 µM and 1.03 µM; in experiment [9] it was 0.198 µM and 0.0635 µM and 0.0637 µM. Also, the TGI in [6] was 2.59 µM [middle of 5 runs].

With `CCCCCCCCCCCCCCCCNCCCN(C)CCCN`, the TGI in [2] was found to be 46.2 µM; in experiment [3] it was 42 µM; in experiment [4], 34.6 µM; in [5] it was 42.2 µM; in experiment [7] it was 32.9 µM; in experiment [8], 38.5 µM. This molecule displayed a TGI in experiment [9] of 32.1 µM.

Turning to `C#CC[N+](C)(CC#C)CC#C`, the TGI in experiment [1], in experiment [2], in experiment [3], in experiment [4], in [7] and in [8] was greater than 100 µM each time. Moreover, the TGI in [9] was greater than 100 µM.
